# Assay results reported in US20090264433A1, “Compounds, Compositions and Methods Comprising Triazine Derivatives” (Institute for OneWorld Health, priority 2008, published 2009).
# Structures can show the parent of a compound that is named as a salt.
# Biological target: T1, CFTR channel in human colonic T84 cells (Homo sapiens, UniProt P13569)
# T1 construct: results in the phosphorylation and opening of CFTR anion channels; host or cells: human colonic T84 cells
# Assay: T84 assay (FLIPR membrane potential dye, forskolin/IBMX-stimulated CFTR)
# Assay type: cell-based
# Settings: average of at least 2 runs unless annotated n = 1
# Experimental: (§1) For example, Human colonic T84 cells can be acquired from the European Collection of Cell Cultures (ECACC) and grown in standard culture conditions as described by the supplier. On the day before assay 25,000 T84 cells per well are plated into standard black walled, clear bottom 384-well assay plates in standard growth medium consisting of DMEM:F12 with 10% FBS and incubated overnight. On the day of the assay the plates are washed using a standard assay buffer (HBSS with 10 mM Hepes) and incubated for 15 minutes in serum free cell culture medium before the addition of a commercially available membrane potential sensitive fluorescent dye (FLIPR Red membrane potential dye, Molecular Devices Corporation). T84 cells are incubated with the FLIPR Red membrane potential dye for 45 minutes in the presence and absence of test compound before being transferred to a commercially available fluorescence imaging plate reader (FLIPR384, Molecular Devices Corporation). Fluorescence levels are monitored continuously every second for 150 seconds; after an initial 10 second baseline, CFTR channel activity is stimulated through the addition of 10 μM forskolin in the presence of 100 μM of the phosphodiesterase inhibitor iso-butyl-methylxanthine (IBMX). Addition of the forskolin leads to the activation of intracellular adenylyl cylase 1, elevating cAMP levels and results in the phosphorylation and opening of CFTR anion channels. CFTR channel opening causes chloride ion efflux and subsequent depolarization of the cells, which is measured by an increase in fluorescence. CFTR inhibitor compounds prevent cell depolarization and the associated increase in fluorescence.
# as §1, with “Human colonic” for “For example, Human colonic”, “T84 cells are acquired from” for “T84 cells can be acquired from”, “(ECACC) and are grown in” for “(ECACC) and grown in”
# T1 sequence (P13569 whole entry): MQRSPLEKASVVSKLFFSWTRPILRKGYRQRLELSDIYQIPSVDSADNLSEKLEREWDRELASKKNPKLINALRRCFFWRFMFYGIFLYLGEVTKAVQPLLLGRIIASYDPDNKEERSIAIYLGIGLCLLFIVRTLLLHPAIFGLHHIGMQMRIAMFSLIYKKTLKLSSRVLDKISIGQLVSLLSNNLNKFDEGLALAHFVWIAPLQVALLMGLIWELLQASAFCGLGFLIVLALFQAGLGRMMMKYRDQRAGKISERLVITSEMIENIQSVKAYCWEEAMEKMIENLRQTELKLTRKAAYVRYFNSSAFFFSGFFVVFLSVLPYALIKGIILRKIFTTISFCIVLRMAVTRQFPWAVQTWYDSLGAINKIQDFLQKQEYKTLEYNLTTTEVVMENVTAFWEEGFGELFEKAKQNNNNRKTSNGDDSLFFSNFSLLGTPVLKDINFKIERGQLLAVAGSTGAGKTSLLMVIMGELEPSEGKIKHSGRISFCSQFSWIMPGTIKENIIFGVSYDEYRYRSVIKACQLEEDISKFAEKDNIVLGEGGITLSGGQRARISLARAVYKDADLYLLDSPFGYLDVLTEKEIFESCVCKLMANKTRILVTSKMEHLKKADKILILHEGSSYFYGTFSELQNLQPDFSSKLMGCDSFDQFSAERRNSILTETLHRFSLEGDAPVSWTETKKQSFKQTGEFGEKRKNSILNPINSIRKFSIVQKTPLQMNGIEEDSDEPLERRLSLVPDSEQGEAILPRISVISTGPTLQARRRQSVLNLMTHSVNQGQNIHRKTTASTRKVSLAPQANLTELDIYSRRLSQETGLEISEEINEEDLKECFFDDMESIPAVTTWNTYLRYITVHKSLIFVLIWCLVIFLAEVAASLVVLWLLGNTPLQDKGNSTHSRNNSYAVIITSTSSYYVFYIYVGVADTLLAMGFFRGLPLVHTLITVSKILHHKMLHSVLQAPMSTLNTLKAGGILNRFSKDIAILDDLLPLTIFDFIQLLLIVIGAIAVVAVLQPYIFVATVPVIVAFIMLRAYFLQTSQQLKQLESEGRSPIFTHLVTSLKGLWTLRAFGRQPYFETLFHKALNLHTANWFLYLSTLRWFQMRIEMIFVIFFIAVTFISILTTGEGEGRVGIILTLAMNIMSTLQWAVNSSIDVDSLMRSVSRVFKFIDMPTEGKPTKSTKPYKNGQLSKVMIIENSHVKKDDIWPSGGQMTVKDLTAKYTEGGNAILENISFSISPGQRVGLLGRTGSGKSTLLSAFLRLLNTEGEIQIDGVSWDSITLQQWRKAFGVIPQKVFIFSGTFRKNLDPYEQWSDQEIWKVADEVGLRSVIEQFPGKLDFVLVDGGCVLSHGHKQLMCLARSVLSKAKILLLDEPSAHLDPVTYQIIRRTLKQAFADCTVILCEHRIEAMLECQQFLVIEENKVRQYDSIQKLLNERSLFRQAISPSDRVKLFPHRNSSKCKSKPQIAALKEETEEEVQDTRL
row,IC50,Compound
1,2.46 µM,"CN(Cc1ccc(F)cc1)Cc1ccc(COc2ncc(-c3cc(Cl)c(O)c(Cl)c3)nn2)cc1 [Compound 165, 2,6-dichloro-4-(3-(4-(((4-fluorobenzyl)(methyl)amino)methyl)benzyloxy)-1,2,4-triazin-6-yl)phenol]"
2,17.4 µM,"CCC(=O)N1CCN(Cc2ccc(COc3ncc(-c4cc(Cl)c(O)c(Cl)c4)nn3)cc2)CC1 [Compound 221, 1-(4-(4-((6-(3,5-dichloro-4-hydroxyphenyl)-1,2,4-triazin-3-yloxy)methyl)benzyl)piperazin-1-yl)propan-1-one]"
3,11.2 µM,"CN(Cc1ccc(COc2ncc(-c3cc(Cl)c(O)c(Cl)c3)nn2)cc1)Cc1cccnc1 [Compound 222, 2,6-dichloro-4-(3-(4-((methyl(pyridin-3-ylmethyl)amino)methyl)benzyl-oxy)-1,2,4-triazin-6-yl)phenol]"
4,0.89 µM,"Oc1c(Br)cc(-c2cnc(OCc3ccc(-c4ccccc4)cc3)nn2)cc1Br [Compound 14, 4-(3-(biphenyl-4-ylmethoxy)-1,2,4-triazin-6-yl)-2,6-dibromophenol]"
5,4.54 µM,"OCCN(Cc1ccc(COc2ncc(-c3cc(Cl)c(O)c(Cl)c3)nn2)cc1)Cc1cccc(Cl)c1Cl [Compound 215, 2,6-dichloro-4-(3-(4-(((2,3-dichlorobenzyl)(2-hydroxyethyl)amino)methyl)benzyloxy)-1,2,4-triazin-6-yl)phenol]"
6,1.07 µM,"Oc1c(Br)cc(-c2cnc(OCc3ccc(C(F)(F)F)cc3)nn2)cc1Br [Compound 16, 2,6-dibromo-4-(3-(4-(trifluoromethyl)benzyloxy)-1,2,4-triazin-6-yl)phenol]"
7,1.3 µM,"Oc1c(Cl)cc(-c2cnc(OCc3ccc(Cl)cc3)nn2)cc1Cl [Compound 113, 2,6-dichloro-4-(3-(4-chlorobenzyloxy)-1,2,4-triazin-6-yl)phenol]"
8,0.48 µM,"Oc1c(Br)cc(-c2cnc(OCc3ccc(F)c(F)c3)nn2)cc1Br [Compound 3, 2,6-dibromo-4-(3-(3,4-difluorobenzyloxy)-1,2,4-triazin-6-yl)phenol]"
9,0.61 µM,"Oc1c(Br)cc(-c2cnc(OCCCc3ccc(Cl)cc3)nn2)cc1Br [Compound 95, 2,6-dibromo-4-(3-(3-(4-chlorophenyl)propoxy)-1,2,4-triazin-6-yl)phenol]"
10,19.8 µM,"OCCN(Cc1ccc(COc2ncc(-c3cc(Cl)c(O)c(Cl)c3)nn2)cc1)Cc1cccnc1 [Compound 191, 2,6-dichloro-4-(3-(4-(((2-hydroxyethyl)(pyridin-3-ylmethyl)amino)methyl)benzyl-oxy)-1,2,4-triazin-6-yl)phenol]"
11,9.99 µM,"CN1CCCN(Cc2ccc(CN(C)Cc3ccc(COc4ncc(-c5cc(Cl)c(O)c(Cl)c5)nn4)cc3)cc2)CC1 [Compound 201, 2,6-dichloro-4-(3-(4-((methyl(4-((4-methyl-1,4-diazepan-1-yl)methyl)benzyl)amino)methyl)benzyloxy)-1,2,4-triazin-6-yl)phenol]"
12,12.9 µM,"Oc1c(Br)cc(-c2cnc(OCc3ccc(CN4CCOCC4)cc3)nn2)cc1Br [Compound 110, 2,6-dibromo-4-(3-(4-(morpholinomethyl)benzyloxy)-1,2,4-triazin-6-yl)phenol]"
13,21 µM,"CCN(CC)CC(NCc1ccc(COc2ncc(-c3cc(Cl)c(O)c(Cl)c3)nn2)cc1)c1ccccc1 (stereo not drawn) [Compound 190, 2,6-dichloro-4-(3-(4-((2-(diethylamino)-1-phenylethylamino)methyl)benzyloxy)-1,2,4-triazin-6-yl)phenol]"
14,23.7 µM,"Oc1c(Cl)cc(-c2cnc(NCc3ccc(Cl)c(Cl)c3)nn2)cc1Cl [Compound 133, 2,6-dichloro-4-(3-(3,4-dichlorobenzylamino)-1,2,4-triazin-6-yl)phenol, formate salt]"
15,0.44 µM,"Oc1c(Br)cc(-c2cnc(OCc3cc(Br)cs3)nn2)cc1Br [Compound 107, 2,6-dibromo-4-(3-((4-bromothiophen-2-yl)methoxy)-1,2,4-triazin-6-yl)phenol]"
